Data taken from EP1785722A1, “Microbial, viral and mammalian susceptibility to agents that affect cell growth and metabolism, and compatibility of compounds” (Stratos Bio Ltd., priority 2005, dated 2007).
“Also recorded” adds a separate entry of the source.

What was measured:
[1] = Animal case study: antibiotic treatment of a cat; assay type: in vivo; conditions: domestic cat with a scratch to the eye; 30 days of treatment
Description: A domestic cat was given a mixture of antibiotics as eye drops in response to a scratch to the eye. […] Previously the cat had never been given milk (as many animals are allergic to cow's milk). The cat was now given full cream milk as part of a regimen to promote weight gain (the cat also continued to eat its usual amount of daily cat food throughout the period of weight loss). Initially weight was gained but within 24 hours weight loss resumed (presumably because the pathogenic bacteria/viruses had found a way of utilising lactose). An autopsy indicated bone-cancer as cause of death. The body wasting caused by the weight loss was very similar to that observed in early AIDS cases. However the cat had been regularly vaccinated against HTLV 1 through its 16 year life (and had never been ill in that period).

Bacillus pumilus = assay: Flow microcalorimetry (p-t curves) of growing Bacillus pumilus; assay type: cell-based; conditions: ZNB 20 ug/ml; pH 8.00
Excerpt: (§1) • a) For B. pumilus a simple glucose/salts medium was employed with a glucose concentration of 0.1 % w/v. • b) For Bord. bronch. The above salts medium was used with the addition of nicotinic acid, methionine and glutamic acid. Glutamic acid was used at a concentration of 0.2% w/v. • c) For M. flavus a semidefined medium was employed, using the same salts as a B. pumilus but also Na-citrate, biotin and protease peptone. In the calorimeter a concentration of 0.4% protease peptone was used. All medium constituents (except protease) were analytical reagents. The calorimetric medium was therefore a final concentration of 100ml of either solution a, b or c freshly autoclaved for 15 mins exactly at 121°C, 151b/sq inch. Glucose was added to the appropriate solution after autoclaving.
(§2) To the vertical face of the vessel close to its base, equidistantly spaced around the circumference, ports were fitted for an oxygen electrode and for sampling/inoculation. The fermenter was closed with a flat flanged glass lid which had five ports accommodating respectively, gas inlet tube, gas exhaust (via air condenser), inlet and outlet flow-lines to and from the calorimeter. The fermenter and lid was sealed with a p.t.f.e. gasket and clamped with a metal clip. The fermenter was placed on a magnetic stirring unit in a water jacket which allowed circulation of the thermostatically controlled water at 30°C or 37°C. The fermenter which contained a Teflon coated magnetic stirring bar, was sterilised by autoclaving.
(§3) For a typical calorimetric incubation the medium was passed through the calorimetric vessel at the same flow rate and temperature as those used in the experiment to establish a steady baseline deflection. The following operations then took place to a strict timetable. The liquid nitrogen stored ampoule was thawed at 38°C for 3 min and then stirred for 20 sec on a whirlimixer. The bacterial suspension (0.5-1.5ml) volumes was inoculated into the medium (100ml) two minutes after completion of thawing. A Gilson automatic pipette was used for inoculation. The calorimeter inlet flow-line was placed in the incubation medium 30 seconds after inoculation. The flowing incubation medium reached the calorimetric vessel two min after inlet flow-line insertion. At this time the recording of the p-t curves was started. Eight min after inoculation the outflow from the calorimeter was returned to the fermenter (after the "baseline" medium had run to waste but before the inoculated medium ran to waste) thus making a closed system. Aeration was started as soon as the inlet tube was inserted in the fermenter. Microbiological purity of the culture was checked by plating out a sample of the culture at the end of each incubation on nutrient agar (lab M).
(§4) The output of calorimetric experiments is a plot of power (energy evolution per unit of time) as a function of time. The unit of power (p) is the Watt (W) and the unit of time is the hour (h). In some experiments seconds (s) were used as time unit.
(§5) However when the concentration of organisms was 5.1 x 10^6 cfu/ml which was the inoculum used in the microcalorimetric incubations the MIC was increased to 2 µg/ml; the effect was also bacteriostatic.

E. coli [2] = assay: Electron microscopy of E. coli treated with ZNB; assay type: cell-based; conditions: response not lethal for the bacterium; listed as ZNB
Micrococcus flavus [3] = assay: Flow microcalorimetry (p-t curves) of growing Micrococcus flavus; assay type: cell-based
Excerpt: as §1, §2, §3, §4
This point occurred at an increase in deflection of 29.5% from the baseline value.

M. flavus = assay: Electron microscopy of M. flavus treated with Znbacitracin; assay type: cell-based, Micrococcus flavus; conditions: even at 0.05 µg/ml (0.25 x MIC)
Excerpt: No differences could be observed between fresh and frozen cells treated with antibiotic, which is as expected since no observable damage had occurred to the bacterial cells during freezing/thawing.

B. pumilus = assay: MIC determination against B. pumilus; assay type: cell-based, Bacillus pumilus; conditions: as printed in table heads
Description: as §5

respiring E.coli = assay: Microcalorimetry of respiring E. coli in glucose buffer; assay type: cell-based; conditions: for response on addition to respiring E.coli: highest concentration added 300µg/ml
Description: E.coli was suspended in 10% DMSO prior to freezing and the viable counts were for batch 1: pre-freeze: 4.0 ± 0.6_ x 10^10 cfu/ml and post -freeze 2.0 ± 0.44 x 10^10 cfu/ml and for batch 2: pre-freeze: 3.45 ± 0.58 x 10^10 cfu/ml and post-freeze 2.93 ± 0.43 x 10^10 cfu/ml. The freezing rate for both batches was 20°C/min the survival rate was 50% for batch 1 and 85% for batch 2. These differences may have been due to batch 1 being kept for 24h at 4°C before being frozen.
The respiration experiments were carried out in glucose buffer at different pH. The respiration curves obtained from batch 1 (inoculum 2 x 10^10 cfu/ml) and batch 2 Inoculum 3.2 x 10^10 cfu/ml) were essentially similar and a mean was used as a reference). The respiration experiments were carried out at pH 7 for polymyxin and Znbacitracin and at pH 8 for neomycin. No differences in p-t control curves could be observed at pH 7 or pH 8.
The p-t curves rose and reached a plateau as has been observed for respiration of yeasts and some 20 min later fell to a lower plateau value. Prior incubation of the cells in the buffered glucose for periods up to 20 min before presentation to the calorimeter could reduce or entirely remove this effect.

Micrococcus flavus [4] = assay: MIC / MBC against Micrococcus flavus; assay type: cell-based
E. coli [5] = assay: MIC / MBC against E. coli; assay type: cell-based
[6] = tested on: Bordetella Bronchiseptica; assay: Flow microcalorimetry (p-t curves) of growing Bordetella bronchiseptica; assay type: cell-based
Excerpt: as §1, §2, §3, §4
After successful freezing of Bord. bronch p-t curves for growth in different concentrations of glutamic acid from 0.1%-0.5% were obtained. It was concluded that a medium containing 0.2% glutamic acid would be sufficient for a good deflection in the microcalorimeter minimising the possibility of the bacteria clogging in the microcalorimetric cell or in the teflon tubes leading to and from the microcalorimetric cell. A pH of 7 was used in all the following experiments as this is the optimum pH for polymyxin - lipid binding.
It was of vital importance to maintain a constant oxygen tension; this was achieved by using saturation concentrations of oxygen. It was decided to use the height of the small peak as full scale deflection for the antibiotic assay as the increase in power was exponential up to this point and the peak occurred at a convenient time. This choice of assay point was empirical. The inoculum was 1.1 ± 0.06 x 10^8 cfu/ml for all the microclalorimetric incubations. […]

[7] = tested on: Bordetella Bronchiseptica; assay: MIC / MBC against Bordetella bronchiseptica; assay type: cell-based; conditions: as printed in table heads
[8] = 0.02 ug/ml added at 50 % of p-t curve
[9] = 0.6-1 ug/ml added at 0 % of p-t curve

## CN[C@H](CC(C)C)C(=O)N[C@H]1C(=O)N[C@@H](CC(N)=O)C(=O)N[C@H]2C(=O)N[C@H]3C(=O)N[C@H](C(=O)N[C@H](C(=O)O)c4cc(O)cc(O)c4-c4cc3ccc4O)[C@H](O)c3ccc(c(Cl)c3)Oc3cc2cc(c3O[C@@H]2O[C@H](CO)[C@@H](O)[C@H](O)[C@H]2O[C@H]2C[C@](C)(N)[C@H](O)[C@H](C)O2)Oc2ccc(cc2Cl)[C@H]1O [vancomycin]
[1]
  effect on the eye: without any effect to the eye

## Znbacitracin
Bacillus pumilus
  Observed effect on p-t curves: No effect on p-t curve
E. coli [2]
  effect on bacterial membrane (electron micrographs): protrusions have been observed on the bacterial membrane; also recorded: did actually cause protrusions to occur on the bacterial membrane
Micrococcus flavus [3]
  concentrations at which no further response could be recorded: higher than 4 µg/ml
  concentrations at which no variation in p-t curves could be observed: lower than 0.02 µg/ml
Micrococcus flavus [3]; [8]
  Comments: No inhibition observed
  Observed effect on p-t curves: Standard growth curve
Micrococcus flavus [3]; 0.02-0.8 µg/ml (0.1 x MIC-4 x MIC)
  appearance of p-t curves: a power plateau immediately after addition of the antibiotic for varying periods of time and then an increase in power followed by a further small peak
Micrococcus flavus [3]; 0.1-1 ug/ml added at 50 % of p-t curve
  Peak of growth curve later than standard curve: Peak of growth curve occurs 60 min later than standard curve
Micrococcus flavus [3]; 0.1-1 ug/ml added at 50 % of p-t curve, CV 1.8%
  Observed effect on p-t curves: Linear log dose response curve 2 hours after addition of antibiotic CV 1.8%
Micrococcus flavus [3]; 0.2-0.3 ug/ml added at 0 % of p-t curve
  Comments: Initial growth promoting effect - delayed peak after 9 hours
Micrococcus flavus [3]; 0.2-0.3 ug/ml added at 0 % of p-t curve, CV 2.3%, n=10
  Observed effect on p-t curves: 1.4 standard curve CV =2.3% , n=10
Micrococcus flavus [3]; [9]
  Comments: Bacteriocidal effect confirmed all bacteria are dead
  Observed effect on p-t curves: Total inhibition of growth
Micrococcus flavus [3]; 1-4 ug/ml added at 50 % of p-t curve, cv 1.4% n=10
  Observed effect on p-t curves: Linear log dose response curve 20 min after addition of antibiotic cv = 1.4% n= 10
Micrococcus flavus [3]; 5 x MIC - 20 x MIC
  appearance of p-t curves: held at a plateau for a varying amount of time and then decreased towards a baseline value
Micrococcus flavus [3]; added at 50 % of p-t curve
  largest dose that could be distinguished: 4 ug/ml largest dose that could be distinguished any higher dose s gave identical dose response curves
Micrococcus flavus [3]; added at inoculum
  concentration with initial growth promoting effect: 0.2 to 0.3 µg/mL
M. flavus
  effect on the cell surface (electron micrographs): Protrusions on the cell wall can be observed
B. pumilus
  MIC: 20 µg/mL
Respiring E.coli; ZNB 300 ug/ml - 1000 ug/ml
  Comments: Resistance demonstrated
Respiring E.coli; ZNB 300 ug/ml - 1000 ug/ml, pH 7
  Observed effect on p-t curves: No response
Respiring E.coli
  response on addition to respiring E.coli: No response could be observed
Respiring E.coli; listed as ZNB
  response on addition to respiring E.coli: no effect on power output
Micrococcus flavus [4]; as printed in table head
  MBC: Ug/ml MIC & MBC 0.2 ug/ml
Micrococcus flavus [4]; listed as ZNB
  MIC: 0.2 µg/mL
E. coli [5]; as printed in table head
  MBC: > 1000 µg/mL
  MIC: > 1000 µg/mL
E. coli [5]; text
  MIC: > 1000 µg/mL
[6]; ZNB added to growing cultures (Fig. 17)
  effect on growing cultures: a small plateau was reached before growth reoccurred
[6]; single antibiotic at its MIC (0.25ug/ml Neo; 100ug/ml ZNB), added at 50 % of p-t curve
  Observed effect on p-t curves: Slightly delayed peak
[7]
  MIC: 100 µg/mL
